The target of one series is Human GLP-1R (Homo sapiens, UniProt P43220). Put plainly: cAMP level determination in human GLP-1R stably transfected HEK293T cells (HTRF cAMP kit). It is filed as cell-based. The conditions noted are these: 37°C 30 min. In short, it runs like this:
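Stably transfected HEK293T cells (1 Million/mL) stimulated 30 min at 37°C with compound (top final 2000 nM, 1:3, 11 points, 0.2% DMSO) plus 0.5 mM IBMX. HTRF cAMP read after 2 hr RT; stimulation % normalised to 100 nM GLP-1 and DMSO wells, cAMP from standard curve, EC50 by four-parameter fit.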
(In general: Changes in cAMP serve as a functional read-out for many G protein-coupled receptors.)

A short description of series [1]: Pharmacokinetic analysis of compounds in mouse plasma after oral gavage or intravenous injection. The conditions noted are these: for AUC(0-t) at 24 h / Cmax / Tmax / half-life / clearance: mouse plasma; for AUC(0-t) at 24 h / Cmax / Tmax: dose 5 mg/kg single oral gavage; for half-life: table dose 5 mg/kg (oral gavage); for clearance: table dose 5 mg/kg, IV arm was 1 mg/kg; for F: mouse, PO 5 mg/kg versus IV 1 mg/kg. The series is classed as in vivo, Male C57BL/6J mice. Here is the method: Male C57BL/6J mice, approximately 30 g, 6-9 weeks old, gavage oral administration and intravenous injection: 3 mice per compound, animals from Shanghai Medicilon Inc.
The pharmacokinetic characteristics of the compounds were tested in mice after oral gavage (PO) or intravenous injection (IV) using a standard protocol. The test compounds were prepared as clear solutions with the vehicle: 10% (v/v) DMSO + 10% (v/v) Solutol + 80% (v/v) Saline. Three mice were administered a single oral gavage dose of 5 mg/kg, and blood samples were collected at 0.25, 0.5, 1, 2, 4, 6, 8, and 24 hours post-dose via submandibular vein or other appropriate methods. Each sample collected was approximately 0.03 mL, anticoagulated with sodium heparin, and placed on ice after collection. Additionally, three mice were administered a single intravenous injection of 1 mg/kg of the test compound, and blood samples were collected at 0.083, 0.25, 0.5, 1, 2, 4, 8, and 24 hours post-dose via submandibular vein or other appropriate methods. Each sample collected was approximately 0.03 mL, anticoagulated with sodium heparin, and placed on ice after collection. Plasma was separated by centrifugation within 1 hour (centrifugation conditions: 6800g, 6 minutes, 2-8°C), and the concentration of the compounds of the present invention was analyzed by LC-MS/MS method.
Prior to analysis, all samples were stored at -80°C, and pharmacokinetic parameters were calculated using Phoenix WinNonlin. Table 2: Pharmacokinetic Parameters

The results in this text go back to patent EP4737454A1, “GLP-1 RECEPTOR AGONIST, AND PREPARATION METHOD THEREFOR AND USE THEREOF” (Wayne Biotechnology Co., Ltd., priority 2023, dated 2025).

SMILES strings stand for the structures.

Human GLP-1R, sequence (P43220 24-463): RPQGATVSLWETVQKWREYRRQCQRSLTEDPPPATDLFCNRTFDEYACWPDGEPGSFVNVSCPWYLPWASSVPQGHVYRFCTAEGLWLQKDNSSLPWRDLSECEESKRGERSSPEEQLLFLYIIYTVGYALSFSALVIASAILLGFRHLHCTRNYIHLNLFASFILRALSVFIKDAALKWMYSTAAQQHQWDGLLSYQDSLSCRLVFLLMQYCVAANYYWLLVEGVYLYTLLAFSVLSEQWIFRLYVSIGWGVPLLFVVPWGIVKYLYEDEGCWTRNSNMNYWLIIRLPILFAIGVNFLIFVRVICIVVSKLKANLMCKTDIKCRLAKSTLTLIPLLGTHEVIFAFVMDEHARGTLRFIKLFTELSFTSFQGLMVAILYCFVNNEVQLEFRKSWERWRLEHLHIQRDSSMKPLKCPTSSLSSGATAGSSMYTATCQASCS

With `Cc1cc(-n2nc3c(c2-n2ccn(-c4ccc(C(=O)N(C)C5CC5)c(Cl)c4F)c2=O)[C@H](C)N(C(=O)c2cc4cc([C@H]5CCOC(C)(C)C5)ccc4n2[C@@]2(c4nc(=O)o[nH]4)C[C@@H]2C)CC3)cc(C)c1F` [Compound 7], the response at Human GLP-1R was half-maximal at 6.12 nM (EC50). In addition, in series [1], the AUC(0-t) at 24 h was determined as 34700 ng·h/mL, the concentration peaked (Cmax) at 3120 ng/mL, the Tmax was determined as 1.33 h and the half-life was 3.41 h. Further, in series [1], the clearance was determined as 1.94 mL/min/kg and the F amounted to 81.76%.

Consider `Cc1cc(-n2nc3c(c2-n2ccn(-c4ccc(C(=O)N(C)C5CC5)c(Cl)c4)c2=O)[C@H](C)N(C(=O)c2cc4cc([C@H]5CCOC(C)(C)C5)ccc4n2[C@@]2(c4nc(=O)o[nH]4)C[C@@H]2C)CC3)cc(C)c1F` [Compound 11], for which a half-maximal response on Human GLP-1R (EC50) required 5.03 nM. In series [1], the AUC(0-t) at 24 h turned out to be 35200 ng·h/mL, the peak concentration (Cmax) turned out to be 3170 ng/mL, the time to peak (Tmax) was found to be 3 h and the half-life is 4.27 h. In series [1], this compound displayed a clearance of 2.02 mL/min/kg and an F of 87.27%.

At Human GLP-1R, `Cc1cc(-n2nc3c(c2-n2ccn(-c4ccc(C(=O)N(C)C5CC5)c(F)c4F)c2=O)[C@H](C)N(C(=O)c2cc4cc([C@H]5CCOC(C)(C)C5)ccc4n2[C@@]2(c4nc(=O)o[nH]4)C[C@@H]2C)CC3)cc(C)c1F` [Compound 5] registered an EC50 of 7.69 nM. Moreover, in series [1], the AUC(0-t) at 24 h was found to be 36700 ng·h/mL, the Cmax was found to be 3880 ng/mL, the Tmax was determined as 1.33 h and the half-life is 3.11 h. In series [1], this compound yielded a clearance of 2.38 mL/min/kg and an F of 105.86%.

`Cc1cc(-n2nc3c(c2-n2ccn(-c4ccc(OC(F)(F)F)c(C(=O)N(C)C5CC5)c4)c2=O)[C@H](C)N(C(=O)c2cc4cc(C5CCOC(C)(C)C5)ccc4n2[C@@]2(c4nc(=O)o[nH]4)C[C@@H]2C)CC3)cc(C)c1F` (stereo partly shown) [Compound 38] yielded an EC50 on Human GLP-1R of 18.1 nM.

For `C[C@H]1c2c(nn(-c3ccc(F)c(N4CCCC4)c3)c2-n2ccn(-c3ccc4c(cnn4C)c3F)c2=O)CCN1C(=O)c1cc2cc(C3CCOC(C)(C)C3)ccc2n1[C@@]1(c2nc(=O)o[nH]2)C[C@@H]1C` (stereo partly shown) [Compound 3], the EC50 on Human GLP-1R is 26.5 nM.

In turn, `Cc1cc(-n2nc3c(c2-n2ccn(-c4ccc(N(C)C(=O)C5CC5)c(F)c4)c2=O)[C@H](C)N(C(=O)c2cc4cc([C@@H]5CCOC(C)(C)C5)ccc4n2[C@@]2(c4noc(=O)[nH]4)C[C@@H]2C)CC3)cc(C)c1F` [Compound 63a] returned an EC50 on Human GLP-1R of 146 nM.

In the case of `Cc1cc(-n2nc3c(c2-n2ccn(-c4ccc(C#N)c(OC(F)(F)F)c4)c2=O)[C@H](C)N(C(=O)c2cc4cc(C5CCOC(C)(C)C5)ccc4n2[C@@]2(c4nc(=O)o[nH]4)C[C@@H]2C)CC3)cc(C)c1F` (stereo partly shown) [Compound 78], the EC50 on Human GLP-1R amounted to 20.3 nM.

The compound `Cc1cc(-n2nc3c(c2-n2ccn(-c4ccc(C(=O)N(C(C)C)C5CC5)cc4)c2=O)[C@H](C)N(C(=O)c2cc4cc(C5CCOC(C)(C)C5)ccc4n2[C@@]2(c4nc(=O)o[nH]4)C[C@@H]2C)CC3)cc(C)c1F` (stereo partly shown) [Compound 25] had an EC50 on Human GLP-1R of 11.8 nM.

In the case of `Cc1cc(-n2nc3c(c2-n2ccn(-c4ccc(N(C)C(=O)C5CC5)c(C(F)(F)F)c4)c2=O)[C@H](C)N(C(=O)c2cc4cc([C@H]5CCOC(C)(C)C5)ccc4n2[C@@]2(c4nc(=O)o[nH]4)C[C@@H]2C)CC3)cc(C)c1F` [Compound 74], the EC50 at Human GLP-1R turned out to be 3.25 nM.

Compound `CCc1cc(-n2ccn(-c3c4c(nn3-c3cc(C)c(F)c(C)c3)CCN(C(=O)c3cc5cc([C@H]6CCOC(C)(C)C6)ccc5n3[C@@]3(c5nc(=O)o[nH]5)C[C@@H]3C)[C@H]4C)c2=O)ccc1C(=O)N(C)C1CC1` [Compound 8] had an EC50 on Human GLP-1R of 4.75 nM.

On to `Cc1cc(-n2nc3c(c2-n2ccn(-c4ccc(C(=O)N(C)C5CC5)c(C)c4F)c2=O)[C@H](C)N(C(=O)c2cc4cc([C@H]5CCOC(C)(C)C5)ccc4n2[C@@]2(c4nc(=O)o[nH]4)C[C@@H]2C)CC3)cc(C)c1F` [Compound 17], for which the midpoint of the response on Human GLP-1R, the EC50, lay at 8.97 nM.

Compound `Cc1cc(-n2nc3c(c2-n2ccn(-c4cc(F)c(C#N)cc4F)c2=O)[C@H](C)N(C(=O)c2cc4cc(C5CCOC(C)(C)C5)ccc4n2[C@@]2(c4nc(=O)o[nH]4)C[C@@H]2C)CC3)cc(C)c1F` (stereo partly shown) [Compound 83] showed an EC50 at Human GLP-1R of 12.8 nM.

`Cc1cc(-n2nc3c(c2-n2ccn(-c4ccc(C(=O)NC5CC5)cc4)c2=O)[C@H](C)N(C(=O)c2cc4cc(C5CCOC(C)(C)C5)ccc4n2[C@@]2(c4nc(=O)o[nH]4)C[C@@H]2C)CC3)cc(C)c1F` (stereo partly shown) [Compound 46] yielded an EC50 at Human GLP-1R of 77.9 nM.

Compound `Cc1cc(-n2nc3c(c2-n2ccn(-c4ccc(N(C)C(=O)C5CC5)c(Cl)c4F)c2=O)[C@H](C)N(C(=O)c2cc4cc([C@H]5CCOC(C)(C)C5)ccc4n2[C@@]2(c4nc(=O)o[nH]4)C[C@@H]2C)CC3)cc(C)c1F` [Compound 73] displayed an EC50 at Human GLP-1R of 6.25 nM.

Consider `Cc1cc(-n2nc3c(c2-n2ccn(-c4ccc(C(=O)N(C)C5CC5)cc4C#N)c2=O)[C@H](C)N(C(=O)c2cc4cc(C5CCOC(C)(C)C5)ccc4n2[C@@]2(c4nc(=O)o[nH]4)C[C@@H]2C)CC3)cc(C)c1F` (stereo partly shown) [Compound 36], for which, on Human GLP-1R, it took 67.8 nM to reach a half-maximal effect (EC50).

For the compound `Cc1cc(-n2nc3c(c2-n2ccn(-c4ccc(C#N)nc4)c2=O)[C@H](C)N(C(=O)c2cc4cc(C5CCOC(C)(C)C5)ccc4n2[C@@]2(c4nc(=O)o[nH]4)C[C@@H]2C)CC3)cc(C)c1F` (stereo partly shown) [Compound 91], a half-maximal effect on Human GLP-1R (EC50) was put at 38.4 nM.

As to `Cc1cc(-n2nc3c(c2-n2ccn(-c4ccc5c(c4)C=CS5(=O)=O)c2=O)[C@H](C)N(C(=O)c2cc4cc([C@@H]5CCOC(C)(C)C5)ccc4n2[C@@]2(c4noc(=O)[nH]4)C[C@@H]2C)CC3)cc(C)c1F` [Compound 62a], the EC50 at Human GLP-1R was 223 nM.

Compound `Cc1cc(-n2nc3c(c2-n2ccn(-c4cc(F)c(C(=O)N(C)C5CC5)cc4F)c2=O)C(C)N(C(=O)c2cc4cc(C5CCOC(C)(C)C5)ccc4n2C2(c4nc(=O)o[nH]4)CC2C)CC3)cc(C)c1F` (stereo not shown) [Compound 26] came in with an EC50 on Human GLP-1R of 11.5 nM.

At Human GLP-1R, `Cc1cc(-n2nc3c(c2-n2ccn(-c4ccc(C#N)cn4)c2=O)[C@H](C)N(C(=O)c2cc4cc(C5CCOC(C)(C)C5)ccc4n2[C@@]2(c4nc(=O)o[nH]4)C[C@@H]2C)CC3)cc(C)c1F` (stereo partly shown) [Compound 85] came in with an EC50 of 50.2 nM.

One may read the EC50 as the concentration that produces a half-maximal response. Lower therefore signals greater potency. As usually defined, the AUC(0-t) is the area under the concentration-time curve up to a stated or last time point. Read a high AUC(0-t) as high exposure. As a reminder, the Cmax is the maximum level reached in the sampled fluid or tissue. What is called Tmax is the time at which the peak concentration occurs. Broadly, the half-life is the time needed for the level to fall by half in the phase considered. A higher half-life goes with slow loss.
